Data on 5 substances can be found in patent publication US7807617B2, “Peptide inhibitors of toxins derived from LL-37” (priority 2003, dated 2010).

Values joined by “and” are separate entries in the source; they are usually repeats but may differ in a detail not shown here. Equal entries are not always repeated.

Data set [1] is described as follows: Skin irritation test. The format is in vivo, rabbit. The note with it: 0.5 ml peptide solution 2 mg/ml on clipped skin for 4 hours, semi-occlusive; observed 1-72 hours. The procedure: (§1) Compound P60.4Ac was prepared according to example 1 and tested for its tolerability in vivo. More specifically, its potential for causing skin and eye irritation was evaluated in rabbits, whereas its ototoxicity was studied in a guinea pig model. Furthermore, its systemic toxicity was assessed after intravenous administration.
(§2) For the skin and eye irritation tests, three rabbits were exposed to 0.5 ml phosphate buffered peptide solution (2 mg/ml), applied onto clipped skin for 4 hours using a semi-occlusive dressing. Observations were made 1, 24, 48, and 72 hours after exposure. Single samples of 0.1 ml of phosphate buffered (pH7.5) peptide solution (2 mg/ml) were instilled into one eye of each of three rabbits to perform an acute eye irritation/corrosion study. Observations were made 1, 24, 48, and 72 hours after instillation.

A short description of data set [2]: Ototoxicity, auditory brainstem response (ABR) after round window membrane application. Type of data set: in vivo, guinea pig. Conditions: for Δ presurgery (ABR threshold change) / ABR treshold (dB): cisplatin 0.66 mg/ml in PBS, P60.4Ac 2 mg/ml in phosphate buffer; for ABR treshold (dB): round window membrane. The procedure:
For evaluating the ototoxicity, nine healthy male albino guinea pigs (500-1200 g), free of external ear pathology, were used. Animals were anesthetized with intraperitoneal injections of ketamine 40 mg/kg and rompun 10 mg/kg. After control auditory testing was performed, the auditory bullae were surgically opened to apply a small piece of spongostan to the round window membrane (RWM) and various solutions (approximately 10 μL) were added on the spongostan. The skin was sutured closed and follow-up auditory testing was performed.
The guinea pigs were divided into three groups, each consisting of two animals to be treated and one control animal. Test and control formulations were administered onto the RWM of the right ears, while the left ears remained untreated. […] Group 2 received the peptide (2 mg/ml) in phosphate buffer (pH7.5) and group 3 received the peptide (2 mg/ml) in formulation solution comprising 7% macrogol 10,000 in isotonic sodium chloride solution preserved with 0.02% benzalkonium chloride and 0.1% Na2EDTA, buffered at pH 5.5 with phosphate.
Auditory brainstem response (ABR) was performed prior to drug administration and directly after surgery and 3, 7, 14 and 22 days later, using a computer-based signal averaging system (Tucker-Davis Technology, Alucha, Fla., USA). Guinea pigs were anesthetized and an insert earphone was placed into the external ear canal. […] Ground electrodes were placed over the neck muscles. ABRs were recorded in an electrically shielded, double-walled, radio-frequency-shielded sound chambre in response to 10 ms tone bursts at 1 kHz. Stimulus intensities were measured and expressed as dB. ABR treshold was defined as the lowest intensity capable of eliciting a replicable, visually detectable response. The post-treatment ABR tresholds were compared to pre-treatment ABR tresholds.

Data set [3] in a line: Acute eye irritation/corrosion study. Type of data set: in vivo, rabbit. Conditions: 0.1 ml peptide solution 2 mg/ml (pH7.5) instilled into one eye. The procedure: as §1, §2
Data set [4] can be described thus: Systemic single and repeated dose toxicity, intravenous. Type of data set: in vivo, rat. The note with it: rats. The procedure: as §1
The systemic toxicity of P60.4Ac was assessed in a single and repeated dose toxicity study in rats. The peptide was administered daily intravenously in escalating doses. In this phase, the Maximum Tolerated Dose (MTD) was established. Repeated dose toxicity was also studied in the MTD phase. In the dose escalation phase, 9 rats were divided in three groups and received 0.4, 2 or 8 mg/kg/day for two days. Clinical signs were recorded twice daily on days of dosing and one day after dosing, body weights were recorded prior to the first dose and one day after dosing. In the MTD phase, 5 female and 5 male rats received 8 mg/kg/day for 5 following days. Clinical signs were recorded twice daily on days of dosing, body weight on day 1 and 6. Clinical laboratory investigations were performed prior to necropsy. Macroscopy was performed at termination of the MTD phase.

Data set [5] relates to peripheral blood mononuclear cells (PBMC). The data set is described as follows: γ-IFN Elispot assay (cytokine secretion). Type of data set: cell-based. The note with it: for γ-IFN Elispot: fraction of positive stimulation indices (positive: >2), PBMC, 48 hours of culture. As for the experimental part:
(§3) The compounds prepared according to example 1 were tested for their therapeutically undesirable immunogenic activity by using Elispot, T-cell proliferation, ERK-activation, and neutrophil chemotaxis assays. The Elispot assay is applicable to determine effects of drugs, chemicals or other compounds on cytokine secretion in vitro, thereby providing data on their putative modulatory effects on immune function in vivo. The results of the assay are given as fraction of positive responses to IFN-gamma. […] Cytokines are direct mediators of inflammation and influence the progress and direction of many immunological reactions. Perturbation of the balance in cytokine production is widely recognized as a critical factor in several disease states. This balance is already disturbed in the case of conditions such as otitis media with effusion and sinusitis. T cell proliferation is also not favorable in this situation, because this will also stimulate the immune response that is already out of control.
(§4) For T cell proliferation, 150,000 peripheral blood mononuclear cells (PBMC) were cultured in the absence or presence of 10 μg/ml of the compounds for 5 days in 96 well round bottom plates (Costar Inc. Cambridge, Mass.) in a final volume of 150 μl IMDM complete. As a positive control, PBMC were cultured in the presence of 25 U/ml recombinant IL-2. During the final 20 hours of culture, PBMC were pulsed with [3H] thymidine (0.5 microCi/well), after which ^3H-incorporation was measured by liquid scintillation counting. For detection of the T cell cytokines IFN and IL-10 by Elispot analysis, 1.5×10^6 PBMC were cultured in 0.5 ml IMDM complete in the absence or presence of various concentrations of synthetic peptide. As a positive control PBMC were stimulated by 10 μg/ml poke weed mitogen (PWM). After 48 hours of culture, PBMC were harvested by gently rinsing the wells with warm IMDM to collect non-adherent cells, which were washed in a large volume of IMDM. PBMC were subsequently plated on antibody-precoated ELISA plates and cultured for 5 hours in IMDM supplemented with 2% pooled human AB serum at 37° C. 5% CO2, after which the plates were developed according to the manufacturer's protocol (U-CyTech, Utrecht, The Netherlands). Spots were counted on an Olympus microscope and analyzed with Olympus Micro Image 4.0 software (Paes Nederland, Zoeterwoude, The Netherlands). The final results are expressed as fraction of positive stimulation indices (positiv: >2).

Data set [6] concerns lipoteichoic acid (LTA). The data set is described as follows: LTA neutralization, whole blood (WB) assay. Type of data set: cell-based. Conditions: ±SD, n = 3. The procedure:
(§5) Compounds prepared according to example 1 were tested for their capability to neutralize the bacterial toxin LPS with a limulus amoebocyte lysate (LAL) assay and with a whole blood (WB) assay. LTA neutralization was also measured with a whole blood assay. Peptide LL-37 was used as a positive control. The peptide concentration whereby 50% LPS is neutralized (50% inhibition) was used as a measure of the peptide's activity. These concentration values were as in table 1. The differences between the compounds within each assay were not statistically significant.

For data set [7], the system named is bacterial toxin LPS. Kind of data set: LPS neutralization, whole blood (WB) assay. The format is cell-based. Conditions: ±SD. The procedure:
as §5

The test system of data set [8] is neutrophils isolated from peripheral blood. Kind of data set: Neutrophil chemotaxis, modified Boyden chamber. Conditions: percentage neutrophils on the membrane compared to positive control 10^-8 M FMLP; 90 minutes. The format is cell-based. As for the experimental part: Neutrophils chemotaxis was measured with neutrophils isolated from peripheral blood using Percoll density centrifugation (density: 1.082 g/ml). The cells were resuspended at a concentration of 2.5×10^6 cells/ml in chemotaxis medium (20 mM N-2-hydroxyethylpiperazine-N′-2-ethanesulfonic acid (HEPES buffer) HEPES, 132 mM NaCl, 6 mM KCl, 1.2 mM KH2PO4, 1 mM MgSO4, 5.5 mM glucose, 0.1 mM CaCl2 and 0.5% (wt/vol) human serum albumin [Central Laboratory of the Netherlands Red Cross Blood Transfusion Service (CLB), Amsterdam, The Netherlands] diluted 1:1 with serum-free RPMI. The chemotactic activity of the compounds was assessed using a modified Boyden Camber technique. Briefly, 26 μl stimuli diluted in HEPES buffer was added to the wells of the lower compartment, and 50 μl of neutrophil suspension (2.5×10^6 cells/ml) was added to the upper compartment. The compartments were separated by two filters: a lower filter with a pore size of 0.45 μm (Millipore Products, Bedford, Mass.) and an upper filter with a pore size of 8 μm (Sartorius Filter, San Francisco, Calif.). After incubation for 90 minutes at 37° C., the upper filters were removed, fixed in ethanol-butanol (80:20, vol/vol), and stained with Weigert solution. To determine neutrophil chemotactic activity, neutrophils were counted in six random high-power fields (×400), and the percentage neutrophils on the membrane as compared to the positive control (10^-8 M N-formylmethionyl-leucyl-phenylalanine (FMLP, Sigma) was calculated.

Data set [9] relates to peripheral blood mononuclear cells (PBMC). The data set is described as follows: T cell proliferation ([3H] thymidine incorporation). The note with it: fraction of positive stimulation indices (positive: >2), 10 μg/ml, 5 days. Type of data set: cell-based. The procedure:
as §3, §4

In data set [10] the test system is bacterial toxin LPS. The data set is described as follows: LPS neutralization, limulus amoebocyte lysate (LAL) assay. Type of data set: biochemical. Conditions: ±SD; for 50%-LPS inhibition, Average: average of LAL-assay and WB-assay. The procedure: as §5
The mark [11] stands for this setting: i.v. 0.4, 2 or 8 mg/kg/day for two days.

With “Ac-IGKEFKRIVERIKRFLRELVRPLR-NH2 [Compound P60.4Ac]”, the skin irritation result in data set [1] is “no skin irritation was detectable”. In addition, the “Δ presurgery (ABR threshold change)” value in data set [2] (3 days) is recorded as −2 dB; in data set [2] (7 days) it was 0 dB; in data set [2] (14 days), −12 dB; in [2] (22 days after surgery), −7 dB; in [2] (postsurgery), −2 dB. The “ABR treshold (dB)” value in data set [2] (3 days) is 70 dB; in data set [2] (7 days), 72 dB; in data set [2] (14 days), 60 dB; in [2] (22 days), 65 dB; in [2] (postsurgery, 1 kHz, one animal per column) it was 70 dB. Besides, in [2] (peptide 2 mg/ml in formulation solution (7% macrogol 10,000, isotonic NaCl, benzalkonium chloride, Na2EDTA, pH 5.5), two animals), the ABR threshold change was 2 dB and 1 dB. Besides, the “redness of the conjunctivae, time to complete resolution after instillation” value in [3] is at most 24 h. For the same substance, the “clinical signs, body weight, hematology, clinical biochemistry and macroscopic examination, MTD phase” value in data set [4] (i.v. 8 mg/kg/day for 5 days) is recorded as “no clear peptide related findings”. Also, the “mortality, MTD phase” value in [4] (i.v. 8 mg/kg/day for 5 days) was “no mortality occurred”. In addition, in data set [4] (setting [11]), the “clinical signs and body weight, dose escalation phase” value is on record as “no clear deviations”. Besides, in [4] (setting [11]), the “mortality, dose escalation phase” value is “no mortality occurred”.

Regarding “IGKEFKRIVERIKRFLRELVRPLR [Compound P60.4]”, in data set [5] (compared with natural peptide LL-37), the “immune response (summary of table 2)” value is recorded as “very low immune response”. Besides, the “γ-IFN Elispot” value in data set [5] is recorded as 3/8. In [6], the 50%-LTA inh. worked out at 2.0 ± 1.3 µg/mL. For the same substance, the “50%-LPS inhibition, WB-assay” value in [7] stood at 2.1 ± 0.6 µg/mL. Also, the “Chemotaxis (%)” value in data set [8] turned out to be 0 ± 0%. The T cell proliferation in data set [9] is listed as 0/8. Also, in [10], the “50%-LPS inhibition, LAL-assay” value is 1.7 ± 0.6 µg/mL and the “50%-LPS inhibition, Average” value was found to be 1.8 ± 0.6 µg/mL.

“IGKEFKRIVQRIKDFLRNLVPRTE [Compound P60.Ac]”: the “γ-IFN Elispot” value in [5] is reported as 3/8. This substance also returned a 50%-LTA inh. in data set [6] of 2.1 ± 0.1 µg/mL. In data set [7], the “50%-LPS inhibition, WB-assay” value came to 2.4 ± 0.5 µg/mL. The “Chemotaxis (%)” value in data set [8] was 61 ± 36%. In addition, the T cell proliferation in data set [9] is on record as 0/8. For the same substance, in data set [10], the “50%-LPS inhibition, LAL-assay” value came to 1.8 ± 0.8 µg/mL and the “50%-LPS inhibition, Average” value is 2.0 ± 0.8 µg/mL.

Take IGKEFKRIVQRIKDFLRNLVPRTE [Compound P60]: in data set [5], the “γ-IFN Elispot” value was 1/8. This substance also gave a 50%-LTA inh. in data set [6] of 2.1 ± 0.7 µg/mL. In [7], the “50%-LPS inhibition, WB-assay” value is 1.4 ± 0.1 µg/mL. In data set [8], the “Chemotaxis (%)” value stood at 76 ± 39%. The T cell proliferation in [9] is given as 0/8. Besides, in data set [10], the “50%-LPS inhibition, LAL-assay” value is 1.5 ± 0.5 µg/mL and the “50%-LPS inhibition, Average” value worked out at 1.5 ± 0.3 µg/mL.

As for LL-37 [reference compound], the “γ-IFN Elispot” value in data set [5] is reported as 4/8. The substance also showed a 50%-LTA inh. in data set [6] of 1.6 ± 0.5 µg/mL. Also, the “50%-LPS inhibition, WB-assay” value in [7] worked out at 1.2 ± 0.2 µg/mL. Besides, the “Chemotaxis (%)” value in [8] is on record as 84 ± 17%. Moreover, the T cell proliferation in [9] is 4/8. Further, in data set [10], the “50%-LPS inhibition, LAL-assay” value turned out to be 1.3 ± 0.2 µg/mL and the “50%-LPS inhibition, Average” value worked out at 1.3 ± 0.2 µg/mL.
